Assay results from US9845319B2, “Amide substituted thiazoles as modulators of RORyt” (Janssen Pharmaceutica NV, priority 2014, dated 2017).

Legend:
[1] = target: T1, human RORγt ligand binding domain (RORγt LBD) (Homo sapiens, UniProt P51449); assay: RORγt ThermoFluor assay; details: estimated from thermal shift concentration response
T1 construct: His-tag (N); TurboTEV protease cleavage site (ENLYFQG) (N); made in house; host or cells: E. coli (pHIS1, a modified pET expression vector)
T1 sequence (P51449 with tags, fused parts or gaps): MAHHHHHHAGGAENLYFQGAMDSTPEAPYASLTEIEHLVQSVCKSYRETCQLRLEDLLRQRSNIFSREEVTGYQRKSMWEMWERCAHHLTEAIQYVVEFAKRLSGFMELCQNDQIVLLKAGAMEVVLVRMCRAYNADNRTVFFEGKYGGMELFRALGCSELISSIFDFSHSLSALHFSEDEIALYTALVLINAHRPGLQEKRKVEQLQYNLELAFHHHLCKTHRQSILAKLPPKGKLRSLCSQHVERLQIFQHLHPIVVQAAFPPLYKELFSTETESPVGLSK
Procedure, shortened: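 Thermal shift of RORγt LBD (0.065 mg/mL) with 60 μM 1,8-ANS in 100 mM Hepes pH 7.0, NaCl, GSH, 0.002% Tween-20, heated at 1° C/min. ANS fluorescence tracked versus temperature; ΔTm relative to DMSO wells. Compounds serially diluted 1:2 from 10 mM DMSO stock.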

full-length human RORγt [2] = target: T2, full-length human RORγt (Homo sapiens, UniProt P51449); assay: RORγt (full-length human) Reporter Assay, Conditions A; assay type: cell-based; details: for IC50: HEK293T cells, GAL4-DBD-RORγt, luciferase, read-out: RORγt (FL) Reporter Assay A, IC50; for inhibition at 2 µM: read-out: RORγt (FL) Reporter Assay A, % inhibition (* at 2 μM), 2 μM compound concentration (footnote *); for inhibition at 6 µM: read-out: RORγt (FL) Reporter Assay A, % inhibition @ 6 μM, 6 μM compound
T2 construct: expressed in transfected cells; host or cells: HEK293T, transiently transfected with pCMV-BD-ROR
T2 sequence (P51449 1-497 isoform P51449-2): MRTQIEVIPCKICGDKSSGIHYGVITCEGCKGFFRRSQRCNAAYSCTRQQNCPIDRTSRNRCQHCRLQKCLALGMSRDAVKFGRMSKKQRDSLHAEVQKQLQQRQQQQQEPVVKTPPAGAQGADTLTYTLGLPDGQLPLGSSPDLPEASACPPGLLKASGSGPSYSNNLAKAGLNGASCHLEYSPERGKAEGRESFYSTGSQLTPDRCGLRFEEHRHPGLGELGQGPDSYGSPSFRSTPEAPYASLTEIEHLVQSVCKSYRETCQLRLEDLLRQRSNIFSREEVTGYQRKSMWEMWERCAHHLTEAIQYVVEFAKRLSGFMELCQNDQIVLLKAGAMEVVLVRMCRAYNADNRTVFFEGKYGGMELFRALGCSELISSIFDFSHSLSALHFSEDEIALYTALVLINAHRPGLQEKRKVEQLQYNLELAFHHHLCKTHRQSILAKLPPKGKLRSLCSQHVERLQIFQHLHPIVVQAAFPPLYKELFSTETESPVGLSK
Procedure, shortened: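 Reporter cells lysed after 16–20 h compound exposure; firefly and Renilla luciferase luminescence measured. Firefly signal normalised to DMSO and saturating reference compound, then to Renilla; IC50 from normalised data versus concentration, percent inhibition relative to DMSO.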

full-length human RORγt [3] = target: T2, full-length human RORγt; assay: RORγt (full-length human) Reporter Assay, Conditions B or C; assay type: cell-based; details: for IC50: HEK293T cells, GAL4-DBD-RORγt, luciferase, read-out: RORγt (FL) Reporter Assay B or C, IC50; for inhibition at 6 µM: read-out: RORγt (FL) Reporter Assay B or C, % inhibition @ 6 μM, 6 μM compound
Experimental: HEK293T cells were plated at 35,000 per well in 96-well plate in medium of DMEM with 10% FBS. […] After overnight (16 to 20 hours) incubation, media were removed and cells were lysed with 50 μL Glo Lysis Buffer (Promega) for 10-15 minutes followed by 10 minute incubation with 50 uL Dual Glo reagent (Promega) at room temperature. Firefly luciferase luminescence was measured using a BMG Pherastar plate reader. To each well, 50 uL Stop and Glo reagent was added and incubated for 10 minutes at room temperature. Renilla luminescence was measured using a BMG Pherastar plate reader. To calculate the effect of compounds on RORγt activity, firefly values were normalized against values of DMSO only and values of reference compound at saturating concentration, then further normalized against Renilla signals. IC50s were generated by plotting final Renilla normalized data against compound concentration and percent inhibition was calculated against DMSO control. […] HEK293T cells were plated at 8750 cells per well in 384-well plate in medium of DMEM with 10% FBS. […] After overnight (16 to 20 hours) incubation, media were removed and cells were lysed with 20 μL Glo Lysis Buffer (Promega) for 10-15 minutes followed by 10 minute incubation with 20 uL Dual Glo reagent (Promega) at room temperature. Firefly luciferase luminescence was measured using a BMG Pherastar plate reader. To each well, 20 uL Stop and Glo reagent was added and incubated for 10 minutes at room temperature. Renilla luminescence was measured using a BMG Pherastar plate reader. To calculate the effect of compounds on RORγt activity, firefly values were normalized against values of DMSO only and values of reference compound at saturating concentration, then further normalized against Renilla signals. IC50s were generated by plotting final Renilla normalized data against compound concentration and percent inhibition was calculated against DMSO control.

[4] = test system: IL-17 production by CD4 T cells; assay: Human Th17 Assay; assay type: cell-based; details: 72 h; IL-17 in supernatant, 3 days, human CD4+ T cells; read-out: Human Th17 Assay, IC50
Experimental: The human Th17 assay tests the effect of RORγt modulatory compounds on IL-17 production by CD4 T cells under conditions which favor Th17 differentiation. Total CD4^+ T cells were isolated from the peripheral blood mononuclear cells (PBMC) of healthy donors using a CD4^+ T cell isolation kit II, following the manufacturer's instructions (Miltenyi Biotec). […] 50 μL of compound at titrated concentrations in DMSO were added into each well at final DMSO concentration at 0.2%. Cells were incubated for 1 hour, then 50 μL of Th17 cell differentiation medium was added to each well. The final concentrations of antibodies and cytokines (R&D Systems) in differentiation medium were: 3×10^6/mL anti-CD3/CD28 beads (prepared using human T cell activation/expansion kit, Miltenyi Biotec), 10 μg/mL anti-IL4, 10 μg/mL anti-IFNγ, 10 ng/mL IL1β, 10 ng/mL IL23, 50 ng/mL IL6, 3 ng/mL TGFβ and 20 U/mL IL2. Cells were cultured at 37° C. and 5% CO2 for 3 days. Supernatants were collected and the accumulated IL-17 in culture was measured by using MULTI-SPOT® Cytokine Plate following manufacture's instruction (Meso Scale Discovery). The plate was read using Sector Imager 6000, and IL-17 concentration was extrapolated from the standard curve. The IC50s were determined by GraphPad.

Row | SMILES | Kd [1] | IC50 (full-length human RORγt [2]) | inhibition at 2 µM (full-length human RORγt [2]) | IC50 (full-length human RORγt [3]) | inhibition at 6 µM (full-length human RORγt [3]) | inhibition at 6 µM (full-length human RORγt [2]) | IC50 [4] | inhibition at 2 µM (full-length human RORγt [3]; read-out: RORγt (FL) Reporter Assay B or C, % inhibition (* at 2 μM), 2 μM compound concentration (footnote *))
1 | C[C@H]1CCCN1C(=O)c1nc(-c2nnc(C(C)(C)O)n2C)sc1-c1ccc(C(O)(C(F)(F)F)C(F)(F)F)cc1C(F)(F)F [Example 22, (S)-(5-(4-(1,1,1,3,3,3-Hexafluoro-2-hydroxypropan-2-yl)-2-(trifluoromethyl)phenyl)-2-(5-(2-hydroxypropan-2-yl)-4-methyl-4H-1,2,4-triazol-3-yl)thiazol-4-yl)(2-methylpyrrolidin-1-yl)methanone] | 5 nM | 110 nM | 99% | 83 nM | 87% |  |  | 
2 | C[C@H](NS(=O)(=O)c1ccc(-c2sc(-c3cc(CC(C)(C)C(=O)O)on3)nc2C(=O)N2CC(F)(F)C[C@@H]2C)c(C(F)F)c1F)C(F)(F)F [Example 18/1, 3-(3-(4-((S)-4,4-Difluoro-2-methylpyrrolidine-1-carbonyl)-5-(2-(difluoromethyl)-3-fluoro-4-(N—((S)-1,1,1-trifluoropropan-2-yl)sulfamoyl)phenyl)thiazol-2-yl)isoxazol-5-yl)-2,2-dimethylpropanoic acid] | 5.6 nM | 170 nM |  |  |  | 104% | 470 nM | 
3 | Cc1c(S(=O)(=O)N[C@@H](C)C(F)(F)F)ccc(-c2sc(-c3nnc(C(C)(C)O)o3)nc2C(=O)N2CCC(F)(F)CC2)c1Cl [Example 27, 3-Chloro-4-(4-(4,4-difluoropiperidine-1-carbonyl)-2-(5-(2-hydroxypropan-2-yl)-1,3,4-oxadiazol-2-yl)thiazol-5-yl)-2-methyl-N—((S)-1,1,1-trifluoropropan-2-yl)benzenesulfonamide] | 0.38 nM | 30 nM |  |  |  | 107% | 9 nM | 
4 | C[C@H]1CCCN1C(=O)c1nc(-c2nnc(C(C)(C)O)o2)sc1-c1ccc(C(O)(C(F)(F)F)C(F)(F)F)cc1C(F)(F)F [Example 7/1, (S)-(5-(4-(1,1,1,3,3,3-hexafluoro-2-hydroxypropan-2-yl)-2-(trifluoromethyl)phenyl)-2-(5-(2-hydroxypropan-2-yl)-1,3,4-oxadiazol-2-yl)thiazol-4-yl)(2-methylpyrrolidin-1-yl)methanone] | 1 nM | 38 nM | 102% | 6 nM |  |  | 64 nM | 108%
5 | CC(C)(Cc1nnc(-c2nc(C(=O)N3CCC(F)CC3)c(-c3cc(C(C)(C)C)cc(C(O)(C(F)(F)F)C(F)(F)F)c3)s2)o1)C(=O)O [Example 2/2, 3-(5-(5-(3-(tert-Butyl)-5-(1,1,1,3,3,3-hexafluoro-2-hydroxypropan-2-yl)phenyl)-4-(4-fluoropiperidine-1-carbonyl)thiazol-2-yl)-1,3,4-oxadiazol-2-yl)-2,2-dimethylpropanoic acid] | 2 nM | 150 nM |  |  |  | 104% | 150 nM | 
6 | C[C@H](NS(=O)(=O)c1ccc(-c2sc(-c3nnc(C(C)(C)O)n3C3CC3)nc2C(=O)N2CCC(F)(F)CC2)c(Cl)c1Cl)C(F)(F)F [Example 23, (S)-2,3-Dichloro-4-(2-(4-cyclopropyl-5-(2-hydroxypropan-2-yl)-4H-1,2,4-triazol-3-yl)-4-(4,4-difluoropiperidine-1-carbonyl)thiazol-5-yl)-N-(1,1,1-trifluoropropan-2-yl)benzenesulfonamide] | 3.1 nM |  |  | 40 nM | 109% |  |  | 
